{
  "source": "patent US11298362B2",
  "about": "“Combination therapy with Notch and CDK4/6 inhibitors for the treatment of cancer” (Eli Lilly and Company, priority 2016, dated 2022)",
  "key": {"[1]": {"tested_on": "pRB (phospho-ser780-Rb), total RB, Topo IIa and pHH3 in H2122 cells", "experiment": "Cell cycle biomarker expression by immunoblotting in H2122 cells", "format": "cell-based, human", "protocol": "Time Course Study: NCI-H441 and NCI-H2122 NSCLC cell lines are treated for 4 or 24 hours with 1 μM of Compound A and harvested to evaluate effects on cell cycle biomarker expression which includes the cell cycle inhibitors p21 and p27 as well as markers for cell cycle progression including phospho-histone H3 (pHH3) (a marker for M-phase), Topo 2A (a marker for S-phase), phospho_ser780-RB (a marker for G1 and, as well as, for CDK4/6 inhibition) and cyclin Dl. […] […] Cells are harvested after 24 hours of treatment and evaluated for expression of various cell cycle biomarkers by immunoblotting. […] RB is the direct kinase target of CDK4/6 so inhibition of pRB provides a direct measure of CDK4/6 inhibition. The inhibition of Topo IIA and pHH3 are indicative of the inhibition of cell cycle progression through S and M phases of the cell cycle, respectively. […] The same study is carried out in the H441 cell line. […] RB is the direct kinase target of CDK4/6 so inhibition of pRB provides a direct measure of CDK4/6 inhibition. The inhibition of Topo IIA and pHH3 are indicative of the inhibition of cell cycle progression through S and M phases of the cell cycle, respectively."}, "NCI-H2122 xenograft": {"tested_on": "NCI-H2122 xenograft", "experiment": "Human NCI-H2122 xenograft tumor growth in athymic nude mice", "format": "in vivo", "protocol": "(§1) NCI-H2122 is a human adenocarcinoma non-small cell lung cancer cell line (ATCC® as CRL-5985). The cells are grown in culture media at 37° C. in 5% CO2 with humidity in the atmosphere. Cell culture media for NCI-H2122 is RPMI-1640 with 2 mM L-glutamine, 10 mM 2-[4-(2-hydroxyethyl)piperazin-1-yl]ethanesulfonic acid (HEPES), 1 mM sodium pyruvate, 4500 mg/L glucose, 1500 mg/L sodium bicarbonate, and 10% fetal bovine serum (FBS).\nTo evaluate in vivo efficacy 5×10^6 NCI-H2122 cells in a 1:1 Matrigel® mix (0.2 mL volume) are implanted by subcutaneous injection in the hind leg of 6-8 weeks of age athymic nude female mice (Harlan Laboratories). Just before implantation animals are irradiated ([…]). Mice are fed ad libitum on normal chow. Treatment is initiated with oral administration (gavage) of Compound A in 1% sodium carboxymethylcellulose (Na-CMC) in 0.25% Tween®-80, or Compound B in 1% hydroxyethyl cellulose (HEC) in phosphate buffer pH 2.0 or their respective vehicle in 0.2 mL volume when tumor size reaches to 150±50 mm^3. Compound A is administered at 5 or 8 mg/kg on a Wednesday, Friday, and Monday schedule (TIW) for 2 weeks and Compound B is administered at 25 or 50 mg/kg daily for 14 days.\nTumor growth and body weight are monitored over time to evaluate efficacy and signs of toxicity. Bidimensional measurements of tumors are performed twice a week and tumor volumes are calculated based on the following formula: (Tumor Volume)=[(L)×(W2)×(Π/6)] where L is mid-axis length and W is mid-axis width. Tumor volume data are transformed to a log scale to equalize variance across time and treatment groups. The log volume data are analyzed with a two-way repeated measures analysis of variance by time and treatment using the MIXED™ procedures in SAS™ software (version 8.2). The correlation model for the repeated measures is spatial power. Test Groups are: • 1: 1% HEC in 25 mM Phosphate Buffer, pH 2, QD×14, PO/1% CMC/0.25% Tween 80/0.05% Antifoam, /W-F-M×2, PO • 3: Compound B, 50 mg/kg, QD×14, PO • 4: Compound A, 5 mg/kg, W-F-M×2, PO • 5: Compound A, 8 mg/kg, W-F-M×2, PO • 7: Compound B, 50 mg/kg, QD×14, PO/Compound A, 5 mg/kg, W-F-M×2, PO • 8: Compound B, 50 mg/kg, QD×14, PO/Compound A, 8 mg/kg, W-F-M×2, PO Group 7 and a Group 9 were combined and labelled group 7, because they received the same treatment regimen contrary to testing procedures. […] Group 2 is not shown as it was Compound B monotreatment at the same treatment regimen as Compound B in Group 6 combination treatment.\nUsing the repeated measures analysis previously described, a contrast statement is used to test for an interaction effect on study day 27, using the two specific treatments that were combined (Group 7)."}, "NCI-H441": {"tested_on": "NCI-H441", "experiment": "Cell growth inhibition by CellTiter-Glo assay, NCI-H441", "format": "cell-based", "settings": "Homo sapiens, Compound B alone, 48 hours", "protocol": "(§2) The non-small cell lung cancer (NSCLC) lines NCI-H441 (ATCC® as HTB-174) and NCI-H2122 (ATCC® as CRL-5985) are grown in RPMI-1640 medium supplemented with 2 mM L-glutamine, 10 mM HEPS, 1 mM sodium pyruvate, 4500 mg/L glucose, 1500 mg/L sodium bicarbonate, and 10% fetal bovine serum (FBS) at 37° C. in 5% CO2 with humidity in the atmosphere. The cells are subcultured according to ATCC procedures and treated with increasing concentrations of abemaciclib mesylate (Compound B) either in the presence or absence of 1 μM of Compound A. The growth of the cells is quantified 48 hours later by a CellTiter-Glo assay (Promega). Growth inhibition at each concentration is calculated and IC50 values are determined from the 4-parameter concentration-response curves."}, "NCI-H2122": {"tested_on": "NCI-H2122", "experiment": "Cell growth inhibition by CellTiter-Glo assay, NCI-H2122", "format": "cell-based", "settings": "Homo sapiens, Compound B alone, 48 hours", "protocol": "as §2, §1"}, "[2]": {"settings": "Compound B 0.05-0.8 μM with or without 1 μM Compound A added 1 day before Compound B, 24 hours after addition"}, "[3]": {"settings": "Compound B 0.05-0.8 μM with or without 1 μM Compound A added simultaneously, 24 hours"}},
  "data": [
    {"smiles": "C[C@H](NC(=O)CCC(F)(F)F)C(=O)N[C@@H]1C(=O)N(CCO)c2ncccc2-c2ccccc21", "note": "[Compound A, 4,4,4-trifluoro-N-[(1S)-2-[[(7S)-5-(2-hydroxyethyl)-6-oxo-7H-pyrido[2,3-d][3]benzazepin-7-yl]amino]-1-methyl-2-oxo-ethyl]butanamide]", "values": [
      {"measurement": "cell cycle biomarker expression, time course study", "setting": "[1]; 1 μM Compound A, 24 hours of treatment", "value": "Marginal reductions of pHH3, Topo2A, pRB and total RB"},
      {"measurement": "cell cycle biomarker expression, concentration-response study", "setting": "[1]; [2]", "value": "no effect on the expression of these biomarkers"},
      {"measurement": "cell cycle biomarker expression, concentration-response study", "setting": "[1]; [3]", "value": "no effect on the expression of these biomarkers"},
      {"measurement": "Geometric Mean tumor volume", "setting": "NCI-H2122 xenograft; Group 04: Compound A 5 mg/kg W-F-M×2 PO, study day 6", "value": 110.18, "unit": "mm^3"},
      {"measurement": "Geometric Mean tumor volume", "setting": "NCI-H2122 xenograft; Group 04: Compound A 5 mg/kg W-F-M×2 PO, study day 9", "value": 129.04, "unit": "mm^3"},
      {"measurement": "Geometric Mean tumor volume", "setting": "NCI-H2122 xenograft; Group 04: Compound A 5 mg/kg W-F-M×2 PO, study day 13", "value": 189.14, "unit": "mm^3"},
      {"measurement": "Geometric Mean tumor volume", "setting": "NCI-H2122 xenograft; Group 04: Compound A 5 mg/kg W-F-M×2 PO, study day 16", "value": 289.03, "unit": "mm^3"},
      {"measurement": "Geometric Mean tumor volume", "setting": "NCI-H2122 xenograft; Group 04: Compound A 5 mg/kg W-F-M×2 PO, study day 20", "value": 447.05, "unit": "mm^3"},
      {"measurement": "Geometric Mean tumor volume", "setting": "NCI-H2122 xenograft; Group 04: Compound A 5 mg/kg W-F-M×2 PO, study day 23", "value": 585.69, "unit": "mm^3"},
      {"measurement": "Geometric Mean tumor volume", "setting": "NCI-H2122 xenograft; Group 04: Compound A 5 mg/kg W-F-M×2 PO, study day 27", "value": 761.24, "unit": "mm^3"},
      {"measurement": "Geometric Mean tumor volume", "setting": "NCI-H2122 xenograft; Group 05: Compound A 8 mg/kg W-F-M×2 PO, study day 6", "value": 127.60, "unit": "mm^3"},
      {"measurement": "Geometric Mean tumor volume", "setting": "NCI-H2122 xenograft; Group 05: Compound A 8 mg/kg W-F-M×2 PO, study day 9", "value": 165.23, "unit": "mm^3"},
      {"measurement": "Geometric Mean tumor volume", "setting": "NCI-H2122 xenograft; Group 05: Compound A 8 mg/kg W-F-M×2 PO, study day 13", "value": 199.00, "unit": "mm^3"},
      {"measurement": "Geometric Mean tumor volume", "setting": "NCI-H2122 xenograft; Group 05: Compound A 8 mg/kg W-F-M×2 PO, study day 16", "value": 301.93, "unit": "mm^3"},
      {"measurement": "Geometric Mean tumor volume", "setting": "NCI-H2122 xenograft; Group 05: Compound A 8 mg/kg W-F-M×2 PO, study day 20", "value": 492.37, "unit": "mm^3"},
      {"measurement": "Geometric Mean tumor volume", "setting": "NCI-H2122 xenograft; Group 05: Compound A 8 mg/kg W-F-M×2 PO, study day 23", "value": 481.31, "unit": "mm^3"},
      {"measurement": "Geometric Mean tumor volume", "setting": "NCI-H2122 xenograft; Group 05: Compound A 8 mg/kg W-F-M×2 PO, study day 27", "value": 570.39, "unit": "mm^3"}
    ]},
    {"smiles": "CCN1CCN(Cc2ccc(Nc3ncc(F)c(-c4cc(F)c5nc(C)n(C(C)C)c5c4)n3)nc2)CC1", "note": "[Compound B, N-[5-(4-ethyl-piperazin-1-ylmethyl)-pyridin-2-yl]-[5-fluoro-4-(7-fluoro-3-isopropyl-2-methyl-3H-benzoimidazol-5-yl)-pyrimidin-2-yl]-amine, reference compound]", "values": [
      {"measurement": "IC50", "setting": "NCI-H441", "value": 970, "unit": "nM"},
      {"measurement": "IC50", "setting": "NCI-H2122", "value": 450, "unit": "nM"},
      {"measurement": "cell cycle biomarker expression, concentration-response study", "setting": "[1]; [2]", "value": "concentration-dependent inhibition of pRB (phospho-ser780-Rb), total RB, Topo IIa and pHH3"},
      {"measurement": "cell cycle biomarker expression, concentration-response study", "setting": "[1]; [3]", "value": "concentration-dependent inhibition of pRB (phospho-ser780-Rb), total RB, Topo IIa and pHH3"},
      {"measurement": "Geometric Mean tumor volume", "setting": "NCI-H2122 xenograft; Group 03: Compound B 50 mg/kg QD×14 PO, study day 6", "value": 136.94, "unit": "mm^3"},
      {"measurement": "Geometric Mean tumor volume", "setting": "NCI-H2122 xenograft; Group 03: Compound B 50 mg/kg QD×14 PO, study day 9", "value": 188.32, "unit": "mm^3"},
      {"measurement": "Geometric Mean tumor volume", "setting": "NCI-H2122 xenograft; Group 03: Compound B 50 mg/kg QD×14 PO, study day 13", "value": 191.75, "unit": "mm^3"},
      {"measurement": "Geometric Mean tumor volume", "setting": "NCI-H2122 xenograft; Group 03: Compound B 50 mg/kg QD×14 PO, study day 16", "value": 321.32, "unit": "mm^3"},
      {"measurement": "Geometric Mean tumor volume", "setting": "NCI-H2122 xenograft; Group 03: Compound B 50 mg/kg QD×14 PO, study day 20", "value": 376.59, "unit": "mm^3"},
      {"measurement": "Geometric Mean tumor volume", "setting": "NCI-H2122 xenograft; Group 03: Compound B 50 mg/kg QD×14 PO, study day 23", "value": 489.72, "unit": "mm^3"},
      {"measurement": "Geometric Mean tumor volume", "setting": "NCI-H2122 xenograft; Group 03: Compound B 50 mg/kg QD×14 PO, study day 27", "value": 491.92, "unit": "mm^3"}
    ]}
  ]
}
